Values joined by “and” are separate entries in the source; they are usually repeats but may differ in a detail not shown here. Identical values can stand only once.
What was measured:
S1P receptor 5 = target: T1, S1P receptor 5 (Homo sapiens, UniProt Q9H228); experiment: S1P receptor activation in CHO cells, S1P5; format: cell-based; details: CHO cells over-expressing human S1P5
T1 construct: expressed in transfected cells
Text: (§1) Phosphorylation may have effects on S1P receptor activity that could cause bradycardia. Bradycardia, the dose-limiting toxicity that prevents the use of FTY720 in cancer patients, stems from FTY720-P's actions on S1P receptors 1 and 3. (Camm, J., et al. (2014) Am. Heart J. 168, 632-644; Cohen, J. A., Chun, J. (2011) Ann. Neurol. 69, 759-777; Sanna, M. G., et al. (2004) J. Biol. Chem. 279, 13839-13848; the disclosures of which are incorporated herein by reference). Phosphorylation by sphingosine kinase may make compounds competent to activate S1P receptors. FTY720, for example, when phosphorylated is known to activate S1P receptors 1 and 3. Because compound 5 could be phosphorylated, the activity of compound 5 and its phosphate 5-P (FIG. 28) on S1P receptors was evaluated (FIG. 32).
(§2) 51P1-5 activation: Chinese hamster ovary (CHO) cells stably over-expressing the different human 51P receptor subtypes are used. S1P1, S1P4 and S1P5 overexpressing CHO cells are cultured in medium containing alpha-MEM supplemented with 10% FBS, 50 μg/ml gentamycin and 0.5 mg/ml G418. S1P2 and S1P3 overexpressing CHO cells are cultured in RPMI containing 10% FBS, 50 μg/ml gentamycin and 0.5 mg/ml G418. Prior to stimulation, cells are rendered serum-free for 24 h. Stimulation is carried out for 10 min in serum-free DMEM containing 0.1 mg/ml of fatty-acid free BSA in the absence or presence of the various compounds or 51P. Protein lysates are prepared using a buffer containing (50 mM Tris pH 7.4, 150 mM NaCl, 10% glycerol, 1% Triton X-100, 2 mM EDTA, 2 mM EGTA, 40 mM β-glycerophosphate, 50 mM sodium fluoride, 10 mM sodium pyrophosphate, 2 mM dithiothreitol, 0.2 mM sodium orthovanadate). Cells are homogenized by one 5 sec burst in a MSE Ultrasonic Disintegrator, centrifuged and taken for protein determination. Equal amounts of protein are separated by SDS-PAGE (10% polyacrylamide gel), transferred to nitrocellulose membranes and subjected to Western blot analysis. Bands were stained using IRDye® secondary antibodies and visualized by the LICOR Odyssey® Fc Imaging system. Antibodies against phospho-Thr202/Tyr204-p42/p44-MAPK and phospho-Ser PKC substrate are from Cell Signaling, Frankfurt am Main, Germany. Polyclonal antisera against total p42 and total p44 were generated and characterized as previously described. (Huwiler, A.; Pfeilschifter, J. Br. J. Pharmacol. 1994, 113, 1455-1463; disclosure of which is incorporated herein by reference).

[1] = Heart rate by ECG telemetry in mice; format: in vivo, C57BL/6 mice; details: for heart rate in telemetry tracing: after injection, saline approximately 600 BPM
Text: In more exemplary embodiments, compounds 5 and 5-P were further examined for their ability to activate multiple S1P receptors in vivo. In particular, mouse heart rate and lymphocyte sequestration were examined. Mouse heart rate decreases causing bradycardia when S1P receptor 3 is activated while in humans this effect may be mediated by S1P receptor 1. In both mice and humans, lymphocytes are sequestered when the S1P receptor 1 is activated.
As shown in the telemetry readings detailed in FIG. 36, FTY720 (B) slowed heart rate comparison to compound 5 (C) and the control (A, saline). As shown in A, after administering saline, normal sinus rhythm with clearly discernible P waves, representing atrial depolarization, and QRS complexes, representing ventricular depolarization, at regular intervals is observed. The heart rate in this tracing was approximately 600 beats per minute (BPM). […] Finally, as shown in C, for exemplary embodiment compound 5, similar to the saline injection, normal sinus rhythm with well-defined and consistent P waves and QRS complexes were present following injection. The heart rate in this tracing was approximately 600 BPM, similar to saline.
Heart rate: C57BL/6 mice are surgically implanted with DSI TA-ETAF20 electrocardiographic telemetry devices (Data Sciences International, St. Paul, Minn.). The electrocardiographic data is collected and recorded using the PhysioTel telemetry system and Dataquest A.R.T 4.0 software (DSI). The telemetry device is implanted in the mouse's abdominal cavity with biopotential leads sutured in place in the chest wall. Buprenorphine (0.05 mg/kg) is administered every 12 h after surgery for pain management and enrofloxacin (3 mg/kg) is administered 2× per day for 7 days post-surgery as an antibiotic. Mice are permitted two weeks recovery after surgery before initiation of baseline telemetry recordings. Heart rate is calculated from ECG data taken in the freely moving, conscious mice. Mice are divided into two groups of 3 mice and treated intraperitoneally with a single dose of vehicle (0.9% saline or 20% acidified DMSO in 0.9% saline), 10 mg/kg FTY720, FTY720-Phosphate, 5, or 5-P and heart rate monitored continuously for 10 h. Mice are rested for two weeks at which point the experiment is repeated with the mice assigned to the alternate group. These experiments are performed in accordance with all national or local guidelines and regulations and were approved by the UCI Institutional Animal Care and Use Committee.

FL5.12 cells = experiment: Vacuolation assay; format: cell-based, murine; set-up: key to Vacuolation score: 0-100 score: (3×%cat3+2×%cat2+1×%cat1)/3; cells graded 0-3 for vacuoles; details: FL5.12 cells, 3 h in 2.5 μM compound except where otherwise indicated, mean ± SEM, n ≥3
Description: In an exemplified study, nutrient transporter down-regulation was monitored by quantifying surface levels of the amino acid transporter-associated protein, CD98, by flow cytometry. Vacuolation was scored in a range from 0 to […], as determined by a vacuolation assay described in greater detail in the Materials and Methods section below.
Vacuolation assay: Cells were evaluated at 100× using brightfield microscopy and a Nikon TE2000-S fluorescence microscope equipped with DIC filters. Vacuolation was quantified after a 3 h incubation period in 2.5 μM compound except where otherwise indicated. To calculate a vacuolation score, vacuolation severity in at least 15 individual cells/experiment was assessed qualitatively. Scores were assigned to individual cells as follows: 0=no vacuoles, 1=very small vacuoles, 2=multiple well-defined vacuoles, 3=multiple large vacuoles. To calculate the vacuolation score associated with a compound, the following formula was used: vacuolation score=[(3×% cells in category 3)+(2×% cells in category 2)+(1×% cells in category 1)]/3.
The score is divided by 3 so that a compound with 100% of its cells in category 3 would have a vacuolation score of 100. Three independent experiments were conducted and the vacuolation scores averaged to generate a mean+/−SEM. All cells were scored by one lab member after confirming that a blinded individual scored 5 compounds with similar results.

S1P receptor 2 = target: T2, S1P receptor 2 (Homo sapiens, UniProt O95136); experiment: S1P receptor activation in CHO cells, S1P2; format: cell-based; details: CHO cells over-expressing human S1P2
T2 construct: expressed in transfected cells
Text: as §1, §2

S1P receptor 1 = target: T3, S1P receptor 1 (Homo sapiens, UniProt P21453); experiment: S1P receptor activation in CHO cells, S1P1; format: cell-based; details: CHO cells over-expressing human S1P1, 10 min stimulation, Western blot
T3 construct: expressed in transfected cells
Text: as §1, §2

T2 sequence (O95136 whole entry): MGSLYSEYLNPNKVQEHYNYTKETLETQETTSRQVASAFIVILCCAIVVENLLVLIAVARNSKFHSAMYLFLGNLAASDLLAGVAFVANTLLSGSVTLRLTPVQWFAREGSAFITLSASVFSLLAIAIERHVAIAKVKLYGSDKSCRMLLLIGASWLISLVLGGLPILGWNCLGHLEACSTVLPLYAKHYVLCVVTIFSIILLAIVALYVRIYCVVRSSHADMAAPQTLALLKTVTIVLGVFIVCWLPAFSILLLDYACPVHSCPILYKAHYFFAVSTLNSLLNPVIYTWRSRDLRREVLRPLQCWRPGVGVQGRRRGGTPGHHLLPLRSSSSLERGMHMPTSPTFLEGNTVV
T3 sequence (P21453 whole entry): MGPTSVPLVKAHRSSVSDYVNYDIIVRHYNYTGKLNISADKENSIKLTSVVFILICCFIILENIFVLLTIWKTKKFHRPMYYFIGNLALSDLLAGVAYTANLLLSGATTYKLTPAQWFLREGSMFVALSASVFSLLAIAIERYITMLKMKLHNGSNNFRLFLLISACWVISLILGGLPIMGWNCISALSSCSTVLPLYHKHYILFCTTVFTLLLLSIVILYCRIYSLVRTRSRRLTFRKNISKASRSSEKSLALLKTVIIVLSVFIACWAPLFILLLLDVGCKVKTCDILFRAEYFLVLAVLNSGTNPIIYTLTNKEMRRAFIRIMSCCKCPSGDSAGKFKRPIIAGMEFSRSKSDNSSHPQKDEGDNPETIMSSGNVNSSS
T1 sequence (Q9H228 whole entry): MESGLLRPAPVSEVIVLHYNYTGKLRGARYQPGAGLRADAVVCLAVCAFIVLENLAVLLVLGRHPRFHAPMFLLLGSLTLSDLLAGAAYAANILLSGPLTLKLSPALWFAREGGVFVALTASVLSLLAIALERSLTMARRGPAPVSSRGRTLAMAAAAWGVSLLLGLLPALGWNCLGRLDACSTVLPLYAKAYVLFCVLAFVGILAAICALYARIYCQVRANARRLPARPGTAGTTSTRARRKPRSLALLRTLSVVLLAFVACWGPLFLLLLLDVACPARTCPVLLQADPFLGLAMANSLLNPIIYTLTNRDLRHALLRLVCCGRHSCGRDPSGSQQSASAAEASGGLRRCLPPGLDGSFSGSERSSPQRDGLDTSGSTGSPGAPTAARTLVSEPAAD

SMILES | activation of S1P receptor 5 (S1P receptor 5) | heart rate in telemetry tracing [1] | effect on heart rate ([1]; single dose 10 mg/kg intraperitoneally, compared to saline controls) | Vacuolation score (FL5.12 cells; listed as 104) | activation of S1P receptor 2 (S1P receptor 2) | activation of S1P receptor 1 (S1P receptor 1) | decrease of heart rate ([1]; single dose 10 mg/kg intraperitoneally, compared to saline vehicle) | Vacuolation score (FL5.12 cells)
CCCCCCCCc1ccc([C@H]2CCN[C@@H]2CO)cc1.Cl [Compound 5, (2S,3R)-2-(hydroxymethyl)-3-(4-octylphenyl)Pyrrolidinium chloride] | failed to activate | approximately 600 BPM | no significant effect | 81 and 81 ± 3 | failed to activate | weakly activated | – | –
CCCCCCCCc1ccc(CCC(N)(CO)CO)cc1.Cl [FTY720, 2-Amino-2-[2-(4-octylphenyl)ethyl]propane 1,3-diol hydrochloride, reference compound] | – | approximately 200 BPM | – | – | – | – | approximately 50% | 82 ± 4
CCCCCCCCc1ccc([C@@H]2CCN[C@H]2CO)cc1.Cl [Compound 6] | failed to activate | – | – | – | failed to activate | weakly activated | – | –
